Measurements: US20110178053A1, “AZACARBOLINE DERIVATIVES, PREPARATION METHOD THEREOF AND THERAPEUTIC USE OF SAME” (SANOFI-AVENTIS, priority 2008, published 2011)

Key:
[1] = target: T1, Pim-1 (Homo sapiens, UniProt P11309); experiment: TR-FRET assay, Pim-1 kinase (phosphorylation of Bad Ser112); type: biochemical; conditions: TR-FRET; ATP 40 μM; read-out: IC50 Pim1
T1 construct: His6-labelled recombinant full-length human Pim-1, Pim-2 or Pim-3 protein; His6; made in house
How it was run: (§1)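 For each of Pim-1, Pim-2 and Pim-3 (His6-tagged full-length human), compounds were titrated over 10 concentrations in duplicate, typically from 30 μM, with ATP at 40 μM, equal to apparent KM. Bad Ser112 phosphorylation was read as the 665/615 nm TR-FRET ratio and IC50 fitted by 4-parameter logistic model.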

[2] = target: PLK1 (Homo sapiens, UniProt P53350); experiment: PLK1 biochemical inhibition
PLK1, sequence (P53350 whole entry, species assumed): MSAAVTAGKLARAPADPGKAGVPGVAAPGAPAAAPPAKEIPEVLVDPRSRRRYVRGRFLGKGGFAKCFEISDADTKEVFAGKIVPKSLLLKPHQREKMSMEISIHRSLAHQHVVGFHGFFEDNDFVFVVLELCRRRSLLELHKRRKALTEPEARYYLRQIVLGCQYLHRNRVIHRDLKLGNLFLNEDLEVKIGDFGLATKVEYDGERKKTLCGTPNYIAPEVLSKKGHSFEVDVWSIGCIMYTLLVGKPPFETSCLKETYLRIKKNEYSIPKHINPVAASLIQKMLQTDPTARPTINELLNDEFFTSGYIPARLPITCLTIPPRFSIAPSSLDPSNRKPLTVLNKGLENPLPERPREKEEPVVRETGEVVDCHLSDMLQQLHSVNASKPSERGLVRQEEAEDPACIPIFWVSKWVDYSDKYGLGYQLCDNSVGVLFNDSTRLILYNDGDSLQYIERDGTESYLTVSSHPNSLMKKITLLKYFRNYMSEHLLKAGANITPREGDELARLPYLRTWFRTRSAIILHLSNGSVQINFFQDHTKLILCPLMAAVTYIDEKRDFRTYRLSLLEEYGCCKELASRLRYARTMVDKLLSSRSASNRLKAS

[3] = target: T2, Pim-2 (Homo sapiens, UniProt Q9P1W9); experiment: TR-FRET assay, Pim-2 kinase (phosphorylation of Bad Ser112); type: biochemical; conditions: TR-FRET; ATP 40 μM; read-out: IC50 Pim2
T2 construct: His6-labelled recombinant full-length human Pim-1, Pim-2 or Pim-3 protein; His6; made in house
T2 sequence (Q9P1W9 whole entry): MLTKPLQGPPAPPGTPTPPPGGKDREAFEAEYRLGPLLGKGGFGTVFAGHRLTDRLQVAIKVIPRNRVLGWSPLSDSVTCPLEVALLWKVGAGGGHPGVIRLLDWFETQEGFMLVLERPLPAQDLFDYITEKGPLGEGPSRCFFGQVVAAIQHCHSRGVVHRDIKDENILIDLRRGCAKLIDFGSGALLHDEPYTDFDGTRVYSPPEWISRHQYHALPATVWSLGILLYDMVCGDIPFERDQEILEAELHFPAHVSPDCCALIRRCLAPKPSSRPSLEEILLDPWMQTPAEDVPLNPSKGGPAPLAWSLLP
How it was run: as §1

[4] = target: T3, Pim-3 (Homo sapiens, UniProt Q86V86); experiment: TR-FRET assay, Pim-3 kinase (phosphorylation of Bad Ser112); type: biochemical; conditions: TR-FRET; ATP 40 μM; read-out: IC50 Pim3
T3 construct: His6-labelled recombinant full-length human Pim-1, Pim-2 or Pim-3 protein; His6; made in house
How it was run: as §1

T1 sequence (P11309 whole entry): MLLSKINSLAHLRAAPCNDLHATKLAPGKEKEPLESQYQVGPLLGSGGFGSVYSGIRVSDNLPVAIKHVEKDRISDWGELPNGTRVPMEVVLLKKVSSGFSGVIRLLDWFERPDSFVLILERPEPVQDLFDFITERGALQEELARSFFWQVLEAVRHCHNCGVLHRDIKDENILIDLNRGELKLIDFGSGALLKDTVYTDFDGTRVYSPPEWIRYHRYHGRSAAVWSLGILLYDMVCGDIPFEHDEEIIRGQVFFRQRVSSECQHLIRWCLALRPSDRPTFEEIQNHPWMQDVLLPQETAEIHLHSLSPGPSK

Compound | IC50 [1] | IC50 [2] | IC50 [3] | IC50 [4]
Fc1cnc2[nH]c3cnc(-c4cccnc4)cc3c2c1 [Example 2, 3-fluoro-6-(pyrid-3-yl)-9H-pyrrolo[2,3-b:5,4-c′] dipyridine] | 100 to 1000 nM | 100 to 1000 nM |  | 
CN(C)CC(=O)N1CCN(c2ccc(-c3cnc4[nH]c5cnc(-c6cccnc6)cc5c4c3)cc2)CC1 [Example 135, 2-(dimethylamino)-1-(4-{4-[6-(pyrid-3-yl)-9H-pyrrolo[2,3-b:5,4-c′]dipyrid-3-yl]-phenyl}piperazin-1-yl)ethanone] | 1 to 100 nM |  | 100 to 1000 nM | 1 to 100 nM
CC(=O)N1CCN(c2cccc(-c3cnc4[nH]c5cnc(-c6cccnc6)cc5c4c3)c2)CC1 [Example 136, 1-(4-{3-[6-(pyrid-3-yl)-9H-pyrrolo[2,3-b:5,4-c′]dipyrid-3-yl]phenyl}piperazin-1-yl)-ethanone] | 1 to 100 nM |  | > 5000 nM | 1 to 100 nM
CC(=O)N1CCN(c2ccc(-c3cnc4[nH]c5cnc(-c6cccnc6)cc5c4c3)cc2)CC1 [Example 137, 1-(4-{4-[6-(pyrid-3-yl)-9H-pyrrolo[2,3-b:5,4-c′]dipyrid-3-yl]phenyl}piperazin-1-yl)-ethanone] | 1 to 100 nM |  | 100 to 1000 nM | 1 to 100 nM
CN1CCN(c2ccc(-c3cnc4[nH]c5cnc(-c6cccnc6)cc5c4c3)cc2)CC1 [Example 138, 3-[4-(4-methylpiperazin-1-yl)phenyl]-6-(pyrid-3-yl)-9H-pyrrolo[2,3-b:5,4-c′]dipyridine] | 1 to 100 nM |  | 100 to 1000 nM | 1 to 100 nM
CN1CCN(c2cccc(-c3cnc4[nH]c5cnc(-c6cccnc6)cc5c4c3)c2)CC1 [Example 139, 3-[3-(4-methylpiperazin-1-yl)phenyl]-6-(pyrid-3-yl)-9H-pyrrolo[2,3-b:5,4-c′]dipyridine] | 1 to 100 nM |  | 1000 to 5000 nM | 1 to 100 nM
c1cncc(-c2cc3c(cn2)[nH]c2ncc(-c4ccc(N5CCN(C6CC6)CC5)cc4)cc23)c1 [Example 141, 3-[4-(4-cyclopropylpiperazin-1-yl)phenyl]-6-(pyrid-3-yl)-9H-pyrrolo[2,3-b:5,4-c′]-dipyridine] | 1 to 100 nM |  | 1000 to 5000 nM | 1 to 100 nM
c1cncc(-c2cc3c(cn2)[nH]c2ncc(-c4cccc(N5CCN(C6CC6)CC5)c4)cc23)c1 [Example 142, 3-[3-(4-cyclopropylpiperazin-1-yl)phenyl]-6-(pyrid-3-yl)-9H-pyrrolo[2,3-b:5,4-c′]-dipyridine] | 1 to 100 nM |  | > 5000 nM | 1 to 100 nM
c1cncc(-c2cc3c(cn2)[nH]c2ncc(-c4ccnc(N5CCNCC5)c4)cc23)c1 [Example 144, 3-[2-(piperazin-1-yl)pyrid-4-yl]-6-(pyrid-3-yl)-9H-pyrrolo[2,3-b:5,4-c′]dipyridine] | 1 to 100 nM |  | > 5000 nM | 1 to 100 nM
CN(C)CCCOc1ccc(-c2cnc3[nH]c4cnc(-c5cccnc5)cc4c3c2)cn1 [Example 145, N,N-dimethyl-3-({5-[6-(pyrid-3-yl)-9H-pyrrolo[2,3-b:5,4-c′]dipyrid-3-yl]pyrid-2-yl}-oxy)propan-1-amine] | 1 to 100 nM |  | 100 to 1000 nM | 1 to 100 nM
CN(C)CCCOc1ccc(-c2cnc3[nH]c4cnc(-c5cccnc5)cc4c3c2)cc1 [Example 146, N,N-dimethyl-3-{4-[6-(pyrid-3-yl)-9H-pyrrolo[2,3-b:5,4-c′]dipyrid-3-yl]phenoxy}-propan-1-amine] | 1 to 100 nM |  | 100 to 1000 nM | 1 to 100 nM
c1cncc(-c2cc3c(cn2)[nH]c2ncc(-c4ccc(OCCCN5CCCCC5)cc4)cc23)c1 [Example 147, 3-{4-[3-(piperid-1-yl)propoxy]phenyl}-6-(pyrid-3-yl)-9H-pyrrolo[2,3-b:5,4-c′]-dipyridine] | 1 to 100 nM |  | 100 to 1000 nM | 1 to 100 nM
c1cncc(-c2cc3c(cn2)[nH]c2ncc(-c4ccc(OCCN5CCOCC5)cc4)cc23)c1 [Example 148, 3-{4-[2-(morpholin-4-yl)ethoxy]phenyl}-6-(pyrid-3-yl)-9H-pyrrolo[2,3-b:5,4-c′]-dipyridine] | 1 to 100 nM |  | 100 to 1000 nM | 1 to 100 nM
c1cncc(-c2cc3c(cn2)[nH]c2ncc(-c4ccc(OCCCN5CCOCC5)cc4)cc23)c1 [Example 149, 3-{4-[3-(morpholin-4-yl)propoxy]phenyl}-6-(pyrid-3-yl)-9H-pyrrolo[2,3-b:5,4-c′]-dipyridine] | 1 to 100 nM |  | 100 to 1000 nM | 1 to 100 nM
c1cncc(-c2cc3c(cn2)[nH]c2ncc(-c4ccc(OCCn5ccnc5)cc4)cc23)c1 [Example 150, 3-{4-[2-(1H-imidazol-1-yl)ethoxy]phenyl}-6-(pyrid-3-yl)-9H-pyrrolo[2,3-b:5,4-c′]-dipyridine] | 1 to 100 nM |  | 100 to 1000 nM | 1 to 100 nM
Oc1ccc(-c2cnc3[nH]c4cnc(-c5cccnc5)cc4c3c2)cc1 [Example 151, 4-[6-(pyrid-3-yl)-9H-pyrrolo[2,3-b:5,4-c′]dipyrid-3-yl]phenol] | 1 to 100 nM |  | 100 to 1000 nM | 1 to 100 nM
CS(=O)(=O)N1CCN(CCCOc2ccc(-c3cnc4[nH]c5cnc(-c6cccnc6)cc5c4c3)cc2)CC1 [Example 152, 3-(4-{3-[4-(methylsulfonyl)piperazin-1-yl]propoxy}phenyl)-6-(pyrid-3-yl)-9H-pyrrolo-[2,3-b:5,4-c′]dipyridine] | 1 to 100 nM |  | 100 to 1000 nM | 1 to 100 nM
CCN(CC)CCOc1cccc(-c2cnc3[nH]c4cnc(-c5cccnc5)cc4c3c2)c1 [Example 153, N,N-diethyl-2-{3-[6-(pyrid-3-yl)-9H-pyrrolo[2,3-b:5,4-c′]dipyrid-3-yl]phenoxy}ethan-amine] | 1 to 100 nM |  | 1000 to 5000 nM | 1 to 100 nM
NCCCOc1ccc(-c2cnc3[nH]c4cnc(-c5cccnc5)cc4c3c2)cc1 [Example 155, 3-{4-[6-(pyrid-3-yl)-9H-pyrrolo[2,3-b:5,4-c′]dipyrid-3-yl]-phenoxy}propan-1-amine] | 1 to 100 nM |  | 100 to 1000 nM | 1 to 100 nM
Cc1cc(N2CCN(C(=O)OC(C)(C)C)CC2)ncc1-c1cnc2[nH]c3cnc(-c4cccnc4)cc3c2c1 [Example 156, 2-methyl-2-propyl 4-{4-methyl-5-[6-(pyrid-3-yl)-9H-pyrrolo[2,3-b:5,4-c′]dipyrid-3-yl]-pyrid-2-yl}piperazine-1-carboxylate] | 1 to 100 nM |  | > 5000 nM | 100 to 1000 nM
Cc1cc(N2CCNCC2)ncc1-c1cnc2[nH]c3cnc(-c4cccnc4)cc3c2c1 [Example 157, 3-[4-methyl-6-(piperazin-1-yl)pyrid-3-yl]-6-(pyrid-3-yl)-9H-pyrrolo[2,3-b:5,4-c′]-dipyridine] | 1 to 100 nM |  | 100 to 1000 nM | 1 to 100 nM
c1cncc(-c2cc3c(cn2)[nH]c2ncc(-c4ccc(N5CCNCC5)nc4)cc23)c1 [Example 158, 3-[6-(piperazin-1-yl)pyrid-3-yl]-6-(pyrid-3-yl)-9H-pyrrolo[2,3-b:5,4-c′]dipyridine] | 1 to 100 nM |  | 100 to 1000 nM | 1 to 100 nM
COc1cncc(-c2cc3c(cn2)[nH]c2ncc(F)cc23)c1 [Example 159, 3-fluoro-6-(5-methoxypyrid-3-yl)-9H-pyrrolo[2,3-b:5,4-c′]dipyridine] | 1000 to 5000 nM |  | > 5000 nM | 1000 to 5000 nM
COc1ccncc1-c1cc2c(cn1)[nH]c1ncc(F)cc12 [Example 160, 3-fluoro-6-(4-methoxypyrid-3-yl)-9H-pyrrolo[2,3-b:5,4-c′]dipyridine] | 100 to 1000 nM |  | > 5000 nM | 1000 to 5000 nM
CSc1cncc(-c2cc3c(cn2)[nH]c2ncc(F)cc23)c1 [Example 161, 3-fluoro-6-[5-(methylsulfanyl)pyrid-3-yl]-9H-pyrrolo[2,3-b:5,4-c′]dipyridine] | 100 to 1000 nM |  | > 5000 nM | 100 to 1000 nM
CCN(CC)CCCn1cc(-c2cc3c(cn2)[nH]c2ncc(OC)cc23)cn1 [Example 166, N,N-diethyl-3-[4-(3-methoxy-9H-pyrrolo[2,3-b:5,4-c′]dipyrid-6-yl)-1H-pyrazol-1-yl]-propan-1-amine] | 100 to 1000 nM |  | > 5000 nM | 1000 to 5000 nM
COc1cnc2[nH]c3cnc(-c4cnn(CCCCCN)c4)cc3c2c1 [Example 168, 5-[4-(3-methoxy-9H-pyrrolo[2,3-b:5,4-c′]dipyrid-6-yl)-1H-pyrazol-1-yl]pentan-1-amine] | 100 to 1000 nM |  | > 5000 nM | 100 to 1000 nM
COc1cnc2[nH]c3cnc(-c4cnn(CCC5CCCCN5C)c4)cc3c2c1 (centres unmarked) [Example 169, 3-methoxy-6-{1-[2-(1-methylpiperid-2-yl)ethyl]-1H-pyrazol-4-yl}-9H-pyrrolo[2,3-b:5,4-c′]dipyridine] | 100 to 1000 nM |  | > 5000 nM | 100 to 1000 nM
C=CCn1cc(-c2cc3c(cn2)[nH]c2nccc(-c4ccc(C(=O)OC)cc4)c23)cn1 [Example 170, methyl 4-{6-[1-(prop-2-en-1-yl)-1H-pyrazol-4-yl]-9H-pyrrolo[2,3-b:5,4-c′]dipyrid-4-yl}benzoate] | 1 to 100 nM |  | 100 to 1000 nM | 100 to 1000 nM
Cn1cc(-c2cc3c(cn2)[nH]c2ncc(F)c(-c4ccc(NS(C)(=O)=O)cc4)c23)cn1 [Example 171, N-{-4-[3-fluoro-6-(1-methyl-1H-pyrazol-4-yl)-9H-pyrrolo[2,3-b:5,4-c′]dipyrid-4-yl]-phenyl}methane sulfonamide] | 1 to 100 nM |  | 1 to 100 nM | 1 to 100 nM
